Test results from US20250059509A1, “METHOD FOR PRODUCING MACROPHAGES, DIFFERENTIATION INDUCING AGENT, DIFFERENTIATION INDUCTION KIT, METHOD FOR CULTURING MACROPHAGES, AGENT FOR PROMOTING MACROPHAGE PROPAGATION, KIT FOR PROMOTING MACROPHAGE PROLIFERATION, METHOD FOR MACROPHAGE PROLIFERATION, AND MACROPHAGES” (Kagoshima University, priority 2021, published 2025).

B1: macrophage colony-stimulating factor (protein, UniProt P07141 33-552, looked up)
Macrophage colony-stimulating …: KEVSEHCSHMIGNGHLKVLQQLIDSQMETSCQIAFEFVDQEQLDDPVCYLKKAFFLVQDIIDETMRFKDNTPNANATERLQELSNNLNSCFTKDYEEQNKACVRTFHETPLQLLEKIKNFFNETKNLLEKDWNIFTKNCNNSFAKCSSRDVVTKPDCNCLYPKATPSSDPASASPHQPPAPSMAPLAGLAWDDSQRTEGSSLLPSELPLRIEDPGSAKQRPPRSTCQTLESTEQPNHGDRLTEDSQPHPSAGGPVPGVEDILESSLGTNWVLEEASGEASEGFLTQEAKFSPSTPVGGSIQAETDRPRALSASPFPKSTEDQKPVDITDRPLTEVNPMRPIGQTQNNTPEKTDGTSTLREDHQEPGSPHIATPNPQRVSNSATPVAQLLLPKSHSWGIVLPLGELEGKRSTRDRRSPAELEGGSASEGAARPVARFNSIPLTDTGHVEQHEGSSDPQIPESVFHLLVPGIILVLLTVGGLLFYKWKWRSHRDPQTLDSSVGRPEDSSLTQDEDRQVELPV

Key:
TREM2 = assay: Ligand activity using TREM2 reporter cells (GFP-positive cells by flow cytometry); details: plate coated with 1 μg test substance per well; reporter cells cultured 16 hours; FIG. 9
Protocol: Using a retroviral vector, TREM2 and DAP12 cDNAs were introduced into 2B4-NFAT-GFP reporter cells (obtained from RIKEN), to prepare reporter cells in which binding of a ligand to TREM2 expressed on the cell surface induces expression of GFP (Iizasa and others, Nature Communications, 2021, vol. 12 (1), p. 2299-16).
As a test substance, β-GluCer, α-GalCer, palmitic acid, stearic acid, cholesterol, PC, LPC, PE, Sulf, or MA was diluted with methanol to 50 μg/ml. The test substance was aliquoted in 20-μl (1-μg) portions into a 96-well cell culture plate, and then the plate was left to stand in a clean bench, to evaporate the methanol.
In the culture plate coated with the test substance, the reporter cells were plated at 5×10^4 cells/100 μl/well. The cells were cultured in a CO2 incubator for 16 hours. The culture was suspended well, and transferred to a V-bottom 96-well plate. The sample was centrifuged at 500 G at 4° C. for 5 minutes, and then the supernatant was discarded. The sample was suspended by adding 50 μl/well of 10 μg/ml PI/1% FBS/HBSS. GFP-positive cells in the sample were analyzed by flow cytometry.

mouse bone marrow cells = assay: Induction of differentiation of mouse bone marrow cells with each test substance, viable cells by WST-8 assay; assay type: cell-based; details: plate coated with 1 μg test substance per well; WST-8 on Days 5, 10, 14 and 20; FIG. 10
Protocol: To fresh 10% FBS/RPMI medium, 1/10 volume of WST-8 (07553-15 Cell Count Reagent SF, manufactured by Nacalai Tesque Inc.) was added to prepare a medium for counting the number of viable cells. The old medium in the culture plate was removed by aspiration, and the medium for counting the number of viable cells was dispensed at 100 μl/well. The cells were cultured at 37° C. in a 5% CO2 incubator for 1 hour. The absorbance at 450 nm was measured using a microplate reader.
A 96-well cell culture plate was coated with each test substance in the same manner as described above, and mouse bone marrow cells were plated in the plate at 4×10^4 cells/100 μl/well.

LIMs and BMDMs = assay: Cryopreservation test of LIMs and BMDMs; assay type: cell-based, mouse; details: −80° C. for thirty days; 25 ng/ml M-CSF; viable cells Day 6 or Day 14; FIG. 6
Protocol: LIMs and BMDMs at 80 to 90% confluence were detached from culture plates, and separately centrifuged at 500 G for 5 minutes, followed by discarding the supernatant. In a CELLBANKER 1 (manufactured by Nippon Zenyaku Kogyo Co., Ltd.), the cells were suspended at 5×10^5 to 5×10^6 cells per 1 ml, and the resulting suspension was transferred to a CryoTube, and stored at −80° C. Thirty days later, the cells were thawed, and plated in a 24-well plate without stimulation (None), with addition of 25 ng/ml M-CSF (M-CSF), or with brain lipid coating (BL). The number of viable cells on Day 6 or Day 14 after the plating was counted using a hemocytometer.

Molecule | ligand activity for TREM2 (TREM2) | differentiation of bone marrow cells into LIMs (mouse bone marrow cells) | proliferation of BMDMs thawed after cryopreservation (LIMs and BMDMs)
sulfatide | have ligand activity for TREM2 | induced differentiation of the bone marrow cells into LIMs | 
lysophosphatidylcholine [LPC] | have ligand activity for TREM2 | induced differentiation of the bone marrow cells into LIMs | 
CCCCCCCCCCCCCCCCCCCCCCCCCC(=O)N[C@@H](CO[C@H]1O[C@H](CO)[C@H](O)[C@H](O)[C@H]1O)[C@H](O)[C@H](O)CCCCCCCCCCCCCC [α-GalCer, α-galactosylceramide] | have ligand activity for TREM2 | induced differentiation of the bone marrow cells into LIMs | 
phosphatidylethanolamine [PE] | have ligand activity for TREM2 | induced differentiation of the bone marrow cells into LIMs | 
β-glucosylceramide [β-GluCer] | have ligand activity for TREM2 | induced differentiation of the bone marrow cells into LIMs | 
mycolic acid [MA] | have ligand activity for TREM2 | induced differentiation of the bone marrow cells into LIMs | 
phosphatidylcholine [PC] | have ligand activity for TREM2 | induced differentiation of the bone marrow cells into LIMs | 
B1 |  |  | did not proliferate
